{"source": "patent US20120058133A1", "about": "“INHIBITION OF TRNA SYNTHETASES AND THERAPEUTIC APPLICATIONS THEREOF” (President and Fellows of Harvard College, priority 2009, published 2012)", "key": {"EAE and CIA": {"test_system": "EAE and CIA", "conditions": "mouse, in vivo; cited from earlier work"}, "luciferase": {"test_system": "luciferase", "assay": "Standard luciferase assay", "assay_type": "biochemical", "conditions": "not shown"}, "prolyl tRNA synthetase": {"biological_target": "T1, prolyl tRNA synthetase (Oryctolagus cuniculus, UniProt G1T2I4)", "T1 construct": "from tissue; host or cells: rabbit reticulocyte lysate (RRL)", "T1 sequence (G1T2I4 1-1447)": "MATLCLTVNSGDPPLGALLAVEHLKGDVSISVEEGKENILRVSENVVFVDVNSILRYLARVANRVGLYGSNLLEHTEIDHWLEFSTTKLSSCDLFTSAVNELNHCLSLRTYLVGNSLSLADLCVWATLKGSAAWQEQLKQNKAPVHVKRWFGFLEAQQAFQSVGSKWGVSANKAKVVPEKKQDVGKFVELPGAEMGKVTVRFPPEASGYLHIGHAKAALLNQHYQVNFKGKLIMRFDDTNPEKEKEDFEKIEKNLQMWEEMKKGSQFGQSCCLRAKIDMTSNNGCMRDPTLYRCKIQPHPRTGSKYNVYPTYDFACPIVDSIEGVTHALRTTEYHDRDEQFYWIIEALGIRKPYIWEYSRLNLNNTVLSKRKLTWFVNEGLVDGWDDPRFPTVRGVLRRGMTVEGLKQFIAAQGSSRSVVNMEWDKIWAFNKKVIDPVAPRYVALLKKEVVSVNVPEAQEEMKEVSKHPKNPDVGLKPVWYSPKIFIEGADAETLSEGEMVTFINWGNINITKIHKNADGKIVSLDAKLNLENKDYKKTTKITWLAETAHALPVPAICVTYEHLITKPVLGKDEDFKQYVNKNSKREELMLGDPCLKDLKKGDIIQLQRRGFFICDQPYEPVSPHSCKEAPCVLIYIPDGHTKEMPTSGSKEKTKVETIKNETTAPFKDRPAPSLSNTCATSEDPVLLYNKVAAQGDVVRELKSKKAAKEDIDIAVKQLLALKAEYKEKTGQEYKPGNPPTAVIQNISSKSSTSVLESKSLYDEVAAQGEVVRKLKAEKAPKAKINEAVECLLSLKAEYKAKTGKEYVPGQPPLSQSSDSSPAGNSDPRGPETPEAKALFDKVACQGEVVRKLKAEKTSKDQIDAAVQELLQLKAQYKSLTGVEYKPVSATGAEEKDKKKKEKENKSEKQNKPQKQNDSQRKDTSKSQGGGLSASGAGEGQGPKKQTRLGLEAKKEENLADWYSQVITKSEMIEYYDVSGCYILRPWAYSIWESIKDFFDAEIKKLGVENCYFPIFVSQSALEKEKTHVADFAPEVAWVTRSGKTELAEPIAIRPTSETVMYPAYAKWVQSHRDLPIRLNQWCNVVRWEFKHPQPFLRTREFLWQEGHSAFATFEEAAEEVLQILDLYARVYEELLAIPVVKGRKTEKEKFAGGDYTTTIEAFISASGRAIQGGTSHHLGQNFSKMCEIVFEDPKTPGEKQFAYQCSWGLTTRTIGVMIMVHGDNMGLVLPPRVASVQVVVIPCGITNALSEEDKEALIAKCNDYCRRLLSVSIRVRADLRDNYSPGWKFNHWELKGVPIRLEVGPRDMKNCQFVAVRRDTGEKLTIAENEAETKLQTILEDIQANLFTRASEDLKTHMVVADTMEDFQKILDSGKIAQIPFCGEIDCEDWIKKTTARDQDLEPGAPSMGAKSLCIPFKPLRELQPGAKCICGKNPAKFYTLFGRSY", "assay": "tRNA charging in RRL (14C Pro or 35S Met incorporation into tRNA)", "assay_type": "biochemical, rabbit", "procedure": "FIG. 23D is a graph showing that HF inhibits prolyl tRNA synthetase activity in RRL. ^14C Pro or ^35S Met were incubated with RRL and total bovine tRNA in the presence or absence of HF or MAZ1310, and incorporation of radioactivity into tRNA was measured by liquid scintillation counting. Error bars reflect standard deviation of triplicate determinations. Data are representative of two separate experiments.\n(§1) The effects of HF on prolyl-tRNA charging was examined. RRL were supplemented with ^14C-Pro or ^35S-Met in the presence or absence of HF, and total tRNA was isolated (FIG. 23D)."}, "dermal ECM deposition": {"test_system": "dermal ECM deposition", "conditions": "Pines et al. 2003; cited from earlier work"}, "[1]": {"test_system": "murine CD4+ CD25− T cells, CD8+ T cells, B cells", "conditions": "high concentrations; PCT/US08/09774; cited from earlier work"}, "EPRS": {"test_system": "EPRS", "assay": "Prolyl-tRNA charging by purified EPRS", "assay_type": "biochemical, rat", "source_text": "FIG. 23E is a graph showing that HF inhibits purified EPRS activity. EPRS was purified from rat liver and assayed for prolyl-tRNA charging activity as previously described (Ting, S. M., Bogner, P. & Dignam, J. D. Isolation of prolyl-tRNA synthetase as a free form and as a form associated with glutamyl-tRNA synthetase. J Biol Chem 267, 17701-17709, (1992)). Data are representative of three separate experiments.\nas §1"}, "STAT3 phosphorylation": {"test_system": "STAT3 phosphorylation", "assay": "STAT3 phosphorylation in developing Th17 cells", "assay_type": "cell-based, mouse", "procedure": "FIG. 3. […] FIG. 3A is a set of representative histograms displaying the kinetics of STAT3 phosphorylation in developing Th17 cells treated with or without HF. Resting naïve T cells (grey, shaded peak), T cells activated in the presence of TGFβ plus IL-6 (TGFβ/IL-6) treated with 10 nM MAZ1310 (light gray trace), 5 nM HF (medium gray trace), or 10 nM HF (dark gray trace). T cells were fixed at the indicated times and intracellular phospho-STAT3 staining was performed.\nFIG. 3B depicts western blot analysis of CD4^+ CD25^− T cells treated with 10 nM HF or 10 nM MAZ1310 and activated in the presence or absence of TGFβ plus IL-6. Whole cell lysates were generated at the indicated times following activation.\nAll cell surface staining was performed in FACS buffer (PBS/2% FBS/0.1% NaN3) and antibodies were incubated with cells on ice for 20-30 minutes. Cells were washed with FACS buffer and fixed with FACS buffer plus 1% paraformaldehyde prior to data acquisition. For phospho-STAT3 intracellular staining, stimulated T cells cultured with or without TGFβ plus IL-6 for the indicated times were harvested on ice and fixed in PBS plus 2% paraformaldehyde for 10 minutes at 37° C. Fixed cells were washed twice with staining buffer (PBS/1% BSA/0.1% NaN3) and then permeabilized with perm buffer III (BD Pharmingen) on ice for 30 minutes. Cells were then washed twice with staining buffer and PE-conjugated anti-STAT3 (pY705) (BD Pharmingen) was added per the manufacturer's instructions and incubated with cells at room temperature for 45-60 minutes. Cells were then washed and stored in staining buffer prior to data acquisition. Foxp3 intracellular staining was performed using a Foxp3 intracellular staining kit (eBioscience—San Diego, Calif.) in accordance with the manufacturer's instructions. […] All FACS data was acquired on a FACSCalibur flow cytometer (BD Pharmingen) and analyzed using FlowJo software (Treestar, Inc.—Ashland, Oreg.). […]"}}, "note": "“Also recorded” adds a separate entry of the source.", "data": [{"smiles": "O=C(CC1NCCCC1O)Cn1cnc2cc(Br)c(Cl)cc2c1=O", "note": "(racemic) [HF, halofuginone]", "values": [{"measurement": "activity in EAE and CIA models", "setting": "EAE and CIA", "value": "active in these models"}, {"measurement": "direct effect on luciferase activity", "setting": "luciferase", "value": "no direct effect"}, {"measurement": "incorporation of 14C-Pro into tRNA", "setting": "prolyl tRNA synthetase", "value": "inhibited"}, {"measurement": "dermal ECM deposition", "setting": "dermal ECM deposition", "value": "potently reduces dermal extracellular matrix (ECM) deposition; also recorded: reduces excess dermal ECM deposition"}, {"measurement": "concentrations generally inhibiting CD4+ T cell, CD8+ T cell, and B220+ B cell activation", "setting": "[1]", "value": "20 to 40", "unit": "nM"}, {"measurement": "reconstituted prolyl-tRNA charging reaction with purified EPRS", "setting": "EPRS", "value": "inhibited this reaction"}, {"measurement": "time post activation at which STAT3 phosphorylation begins to decrease", "setting": "STAT3 phosphorylation", "value": "around 12 hours"}, {"measurement": "STAT3 activation during the first 6 hours of Th17 differentiation", "setting": "STAT3 phosphorylation; 5-10 nM HF", "value": "did not interfere with STAT3 activation"}, {"measurement": "maintenance of STAT3 phosphorylation", "setting": "STAT3 phosphorylation; 5-10 nM HF", "value": "decreased the maintenance of STAT3 phosphorylation"}]}]}
